Results taken from the NIST ThermoML archive (doi:10.1021/je900967j).

assay: xn = mol fraction of the nth substance listed; settings: 298.15 K; 101 kPa; Liquid; Dispersion; x1 = 0

Row | SMILES | binary diffusion coefficient
1 | OCCc1ccccc1 [2-phenylethanol] + O | 7.92e-10 m2/s
2 | OCCCc1ccccc1 [3-phenyl-1-propanol] + O | 7.22e-10 m2/s
3 | OCCCCCc1ccccc1 [1-pentanol, 5-phenyl-] + O | 5.32e-10 m2/s
4 | OCc1ccccc1 [benzenemethanol] + O | 8.3e-10 m2/s
5 | OCCCCc1ccccc1 [4-phenyl-1-butanol] + O | 6.64e-10 m2/s
